Measurements as given in patent publication US20180272034A1, “USE OF CSA COMPOUNDS TO PREVENT MICROBIAL BUILD-UP OR FOULING OF MEDICAL IMPLANTS” (BRIGHAM YOUNG UNIVERSITY, priority 2017, published 2018).
“And” between values parts separate entries of the source, which are not always exact repeats. Identical values can stand only once.

What was measured:
[1] = Hydrogel coating stability and reaction with ethylene oxide (ETO)
Description: Releases of CSA-131 from hydrogel-based coatings were investigated, including examining coating stability and reaction of the coating with ethylene oxide (ETO) during sterilization processes. […] To mask this reactivity, coatings were prepared including varies percentages of citric acid to form non-volatile salts of the CSA compound.
Using a jet mill (Fluid Energy), CSA-131 2-NDSA was milled to an average particle size of 200 nm.

[2] = test system: methicillin-resistant Staphylococcus aureus (MRSA); assay: Coated endotracheal tube segments, daily re-inoculation, growth in medium; type: cell-based; parameters: key to bacterial growth in medium, Day 1 / bacterial growth in medium, Day 10 / bacterial growth in medium, Day 2 / bacterial growth in medium, Day 3 / bacterial growth in medium, Day 4 / bacterial growth in medium, Day 5 / bacterial growth in medium, Day 6 / bacterial growth in medium, Day 7 / bacterial growth in medium, Day 8 / bacterial growth in medium, Day 9: N=no growth; G=growth
Description: (§1) A hydrogel coating containing 10% CSA-131 HCl and 3% citric acid, relative to the hydrogel solids, was tested for antibacterial efficacy using endotracheal tube segments (5.0 mm). These tube segments (surface area of ca. 1.5 cm^2) were dip coated and cured to give coatings of approximately 10 microns. Coated tube segments were washed in phosphate buffered saline (PBS) for varied amounts of time before testing. Antibacterial testing involved immersing tube segments in 10% TSB in PBS (1.0 mL) and inoculating with Pseudomonas aeruginosa (PA01)@10^6 colony forming units (CFU). Samples were incubated for 24 h, and bacterial growth in the medium was assayed visually (i.e., turbidity in the medium is caused by unrestricted bacterial growth). […] And the converse is true: if growth is supported in the medium that the device is colonized, to some extent.
(§2) After 24 h of incubation, tube segments were immersed in fresh growth media (10% TSB in PBS, 1 mL), re-inoculated, and incubated. […] Experiments were performed in triplicate. N=no growth, G=growth.
(§3) Antibacterial activity of a hydrogel coating (ca. 10 microns) containing CSA-131 2-NDSA (10% by weight relative to hydrogel solids) was determined as described in Example 8 using methicillin-resistant Staphylococcus aureus (MRSA) and Pseudomonas aeruginosa (PA01).

[3] = test system: Pseudomonas aeruginosa (PA01); assay: as above; type: cell-based; parameters: key to bacterial growth in medium, Day 1 / bacterial growth in medium, Day 2 / bacterial growth in medium, Day 3 / bacterial growth in medium, Day 4 / bacterial growth in medium, Day 5 / bacterial growth in medium, Day 6 / bacterial growth in medium, Day 7 / bacterial growth in medium, Day 10 / bacterial growth in medium, Day 8 / bacterial growth in medium, Day 9: N=no growth; G=growth
Description: as §1, §2, §3

PA01 = assay: Drip flow system, whole coated endotracheal tubes; type: cell-based, Pseudomonas aeruginosa; settings: hydrogel 10% CSA-131 2-NDSA; three inoculations of 10^7 CFU, 24 h; detection limit 10 CFU
Description: At eight-hour intervals, bacteria (PA01, 10^6 CFU/mL) were passed through the tubes for 10 min (total of 10^7 CFU) at each interval. At a time point 30 min after introduction of bacteria, the growth medium flowing through the tubes was collected and plated to determine the number of bacterial colonies present. After 24 h, tubes were removed and sections (5 mm) were cut from above and below the cuff. These were sonicated in a neutralizing medium and the resulting solution was plated to quantify bacterial biofilm growth.

[4] = three replicates, hydrogel coating 10% CSA-131 2-NDSA, re-inoculated every 24 h
[5] = PA01, three replicates, hydrogel coating 10% CSA-131 2-NDSA, re-inoculated every 24 h

CCCCCCCCCCCCNCCC[C@@H](C)[C@H]1CC[C@H]2[C@@H]3[C@H](OCCCN)C[C@@H]4C[C@H](OCCCN)CC[C@]4(C)[C@H]3C[C@H](OCCCN)[C@]12C.O=S(=O)(O)c1cccc2c(S(=O)(=O)O)cccc12.O=S(=O)(O)c1cccc2c(S(=O)(=O)O)cccc12 [CSA-131 2-NDSA]
coating stability ([1]; CSA-131 2-NDSA in hydrogel coating): stable coatings | reaction with ETO during sterilization ([1]; CSA-131 2-NDSA particles (200 nm) in hydrogel coating): did not react with ETO | time coating prevented bacterial growth ([2]; hydrogel coating ca. 10 microns, 10% CSA-131 2-NDSA): eight | bacterial growth in medium, Day 1 [2, 4]: N | bacterial growth in medium, Day 2 [2, 4]: N | bacterial growth in medium, Day 3 [2, 4]: N | bacterial growth in medium, Day 4 [2, 4]: N | bacterial growth in medium, Day 5 [2, 4]: N | bacterial growth in medium, Day 6 [2, 4]: N | bacterial growth in medium, Day 7 [2, 4]: G and N (2×) | bacterial growth in medium, Day 8 [2, 4]: G and N (2×) | bacterial growth in medium, Day 9 [2, 4]: G | bacterial growth in medium, Day 10 [2, 4]: G | bacterial growth in medium, Day 1 [3, 5]: N | bacterial growth in medium, Day 2 [3, 5]: N | bacterial growth in medium, Day 3 [3, 5]: N | bacterial growth in medium, Day 4 [3, 5]: N | bacterial growth in medium, Day 5 [3, 5]: N | bacterial growth in medium, Day 6 [3, 5]: N | bacterial growth in medium, Day 7 [3, 5]: N | bacterial growth in medium, Day 8 [3, 5]: G | bacterial growth in medium, Day 9 [3, 5]: G | bacterial growth in medium, Day 10 [3, 5]: G | time coating prevented bacterial growth ([3]; PA01, hydrogel coating ca. 10 microns, 10% CSA-131 2-NDSA): seven | bacteria from sonication of tube sections (biofilm) (PA01): no bacteria were detected | bacteria in collected effluent from tubes (PA01): no bacteria were detected
